Reference: patent US8399508B2, “Olopatadine formulations for topical nasal administration” (Alcon Pharmaceuticals Ltd., priority 2001, dated 2013)
Counter-ions that a name gives are not always drawn.

How the values were obtained:
Format in all cases: physicochemical
[1] = Acid-base equilibrium of olopatadine (pKa values, iso-electric point)
Excerpt: Olopatadine has both a carboxylic functional group (pKa1=4.18) and a tertiary amino group (pKa2=9.79). It exists in different ionic forms depending upon the pH of the solution. Olopatadine exists predominantly as a zwitterion in the pH range between the two pKa values with a negatively-charged carboxylic group and a positively-charged tertiary amino group. The iso-electric point of the olopatadine zwitterion is at pH 6.99. At a pH lower than pKa1, cationic olopatadine (with ionized tertiary amino group) is dominant. At a pH higher than pKa2, anionic olopatadine (with ionized carboxylic group) is dominant.

[2] = Effect of NaCl and Na2HPO4 on dissolution of olopatadine hydrochloride in water
Procedure: The effect of NaCl on the dissolution rate of olopatadine hydrochloride in water was determined.

[3] = Effect of NaCl, Na2HPO4 and mannitol on dissolution rate of olopatadine hydrochloride in a nasal vehicle; conditions: nasal formulation containing 0.01% EDTA and 0.01% BAC
Procedure: The effect of NaCl, Na2HPO4, and mannitol on the dissolution rate of olopatadine hydrochloride in a nasal formulation containing 0.01% EDTA and 0.01% BAC was determined.

[4] = Effect of NaCl and Na2HPO4 concentrations on dissolution of olopatadine hydrochloride in a nasal formulation
Procedure: The effect of NaCl and Na2HPO4 concentrations on the dissolution rate of olopatadine hydrochloride in a nasal formulation containing 0.01% EDTA and 0.01% BAC was determined. The aqueous solubility of olopatadine HCl decreases with increasing concentration of NaCl.

[5] = Example 5: visual observations of clarity during compounding, with and without phosphate buffer; conditions: without phosphate buffer, 0.7% NaCl, pH as low as 3.6, compounding procedure of Example 1
Procedure: An exemplary compounding procedure for the nasal composition shown in Table 1 is described as below. • 1. Tare a suitable compounding vessel with magnetic stir bar. Add approximately 80% of the batch weight of purified water. • 2. While stirring, add dibasic sodium phosphate (anhydrous), sodium chloride, edetate disodium, benzalkonium chloride and olopatadine HCl. • 3. Add equivalent to approximately 0.55 g, 6N hydrochloric acid per 100 ml batch. • 4. Allow adequate time between each addition for dissolution of each ingredient • 5. Add purified water to approximately 90% of final batch weight. • 6. Measure pH and adjust, if necessary, to 3.7 with 6N (and/or 1N) hydrochloric acid and 1N sodium hydroxide. • 7. Adjust to final batch weight with purified water (QS). • 8. Measure final pH. • 9. Filter through 0.2 μm filtration membrane.
The two compositions shown in Table 2 below were prepared using the procedure described in Example 1 and visual observations of the compositions clarity were made at different points during the compounding procedure.

[6] = Example 6: visual observations, phosphate buffer added to cloudy 0.6% olopatadine composition; conditions: tested nasal vehicle without a phosphate salt

iso-electric point of the olopatadine zwitterion [1] [pH] | pKa1 (carboxylic functional group) [1] | pKa2 (tertiary amino group) [1] | effect of NaCl on rate of dissolution ([2]; in water) | effect of addition of Na2HPO4 on dissolution ([2]; in water with NaCl) | time for complete dissolution of 0.6% olopatadine solution ([2]; with Na2HPO4) | time for complete dissolution of 0.6% olopatadine solution ([2]; without Na2HPO4, assuming the entire amount would eventually dissolve) | aqueous solubility ([4]; with increasing concentration of NaCl, nasal formulation with 0.01% EDTA and 0.01% BAC) | aqueous solubility ([4]; with increasing phosphate buffer in the presence of NaCl) | dissolution of 0.665% olopatadine hydrochloride in water [5] | solubility of 0.665% olopatadine hydrochloride [6] | SMILES | effect of phosphate salt on dissolution rate [3]
6.99 | 4.18 | 9.79 | significant reduction | dramatically improved | less than one minute | at least several hours |  |  |  |  | CN(C)CC/C=C1/c2ccccc2COc2ccc(CC(=O)O)cc21 [Olopatadine, Z-11-(3-dimethylaminopropylidene)-6,11-dihydrodibenz[b,e]oxepine-2-acetic acid] | 
 |  |  |  |  |  |  | decreases | increased aqueous solubility | did not completely dissolve | not soluble | CN(C)CC/C=C1/c2ccccc2COc2ccc(CC(=O)O)cc21 [olopatadine hydrochloride, hydrochloride salt of (Z)-11-(3-dimethylaminopropylidene)-6,11-dihydro-dibenz-[b,e]oxepin-2-acetic acid] | the same as that shown in water in Example 2
